ChEMBL document CHEMBL1201862, “PubChem BioAssay data set” (2004)
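Interpolation was linear, between the two tested concentrations surrounding the appropriate level; five concentrations were tested over 48 hours in 96-well plates. The concentration for 50% growth inhibition is given as GI50.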 Calls of active or inactive are those of the source. No stated cut-off is given here; in the data, active = GI50 up to about 1.1 µM and inactive = higher.

Experiments:
Assay in all cases: NCI tumour cell line growth inhibition, 48 h
DMS-114 = tested on: DMS-114
DMS-273 = tested on: DMS-273
HOP-18 = tested on: HOP-18
LXFL 529 = tested on: LXFL 529
M19-MEL = tested on: M19-MEL
RXF 631 = tested on: RXF 631
SNB-78 = tested on: SNB-78
XF498 = tested on: XF498

SMILES	GI50 (DMS-114)	GI50 (DMS-273)	GI50 (HOP-18)	GI50 (LXFL 529)	GI50 (M19-MEL)	GI50 (RXF 631)	GI50 (SNB-78)	GI50 (XF498)
CN1CCc2cc3c4cc2C1Cc1ccc(cc1)Oc1cc(ccc1O)CC1c2c(cc(O)c(c2O4)O3)CCN1C (centres undefined)	2050 nM (inactive)	1750 nM (inactive)	3520 nM (inactive)	2530 nM (inactive)	1780 nM (inactive)	1940 nM (inactive)	5660 nM (inactive)	1690 nM (inactive)
C=C1C(=O)C23CC1CCC2C12CO[C@@H]4OCC(C)(CC[C@@H]1OC3=O)C42 (some centres undefined)	1900 nM (inactive)	6560 nM (inactive)	6410 nM (inactive)	2780 nM (inactive)	6530 nM (inactive)	12100 nM (inactive)	2300 nM (inactive)	1920 nM (inactive)
COC(=O)Nc1nc2cc(C(=O)c3cccs3)ccc2[nH]1 [NOCODAZOLE]	42.4 nM (active)	32.2 nM (active)	32800 nM (inactive)	53.2 nM (active)	195 nM (active)	70 nM (active)	32.2 nM (active)	31.4 nM (active)
